These results are taken from paper PMC8659034, “Natural Xanthine Oxidase Inhibitor 5-O-Caffeoylshikimic Acid Ameliorates Kidney Injury Caused by Hyperuricemia in Mice” (Molecules, 2021).

In assay [1] the target is T1, xanthine oxidase (XOD) (Bos taurus, UniProt P80457).
T1 construct: gene XDH
The assay can be described thus: spectrophotometric uric acid formation assay at […] nm; reversibility plots. It counts as biochemical.

In assay [2] the target is T1, xanthine oxidase (XOD). Kind of assay: spectrophotometric uric acid formation assay at […] nm, % inhibition at […]. It counts as biochemical. The conditions noted are these: read-out: % inhibition at 100 μg/mL.

Structures are written as SMILES.

T1 sequence (P80457 2-1332): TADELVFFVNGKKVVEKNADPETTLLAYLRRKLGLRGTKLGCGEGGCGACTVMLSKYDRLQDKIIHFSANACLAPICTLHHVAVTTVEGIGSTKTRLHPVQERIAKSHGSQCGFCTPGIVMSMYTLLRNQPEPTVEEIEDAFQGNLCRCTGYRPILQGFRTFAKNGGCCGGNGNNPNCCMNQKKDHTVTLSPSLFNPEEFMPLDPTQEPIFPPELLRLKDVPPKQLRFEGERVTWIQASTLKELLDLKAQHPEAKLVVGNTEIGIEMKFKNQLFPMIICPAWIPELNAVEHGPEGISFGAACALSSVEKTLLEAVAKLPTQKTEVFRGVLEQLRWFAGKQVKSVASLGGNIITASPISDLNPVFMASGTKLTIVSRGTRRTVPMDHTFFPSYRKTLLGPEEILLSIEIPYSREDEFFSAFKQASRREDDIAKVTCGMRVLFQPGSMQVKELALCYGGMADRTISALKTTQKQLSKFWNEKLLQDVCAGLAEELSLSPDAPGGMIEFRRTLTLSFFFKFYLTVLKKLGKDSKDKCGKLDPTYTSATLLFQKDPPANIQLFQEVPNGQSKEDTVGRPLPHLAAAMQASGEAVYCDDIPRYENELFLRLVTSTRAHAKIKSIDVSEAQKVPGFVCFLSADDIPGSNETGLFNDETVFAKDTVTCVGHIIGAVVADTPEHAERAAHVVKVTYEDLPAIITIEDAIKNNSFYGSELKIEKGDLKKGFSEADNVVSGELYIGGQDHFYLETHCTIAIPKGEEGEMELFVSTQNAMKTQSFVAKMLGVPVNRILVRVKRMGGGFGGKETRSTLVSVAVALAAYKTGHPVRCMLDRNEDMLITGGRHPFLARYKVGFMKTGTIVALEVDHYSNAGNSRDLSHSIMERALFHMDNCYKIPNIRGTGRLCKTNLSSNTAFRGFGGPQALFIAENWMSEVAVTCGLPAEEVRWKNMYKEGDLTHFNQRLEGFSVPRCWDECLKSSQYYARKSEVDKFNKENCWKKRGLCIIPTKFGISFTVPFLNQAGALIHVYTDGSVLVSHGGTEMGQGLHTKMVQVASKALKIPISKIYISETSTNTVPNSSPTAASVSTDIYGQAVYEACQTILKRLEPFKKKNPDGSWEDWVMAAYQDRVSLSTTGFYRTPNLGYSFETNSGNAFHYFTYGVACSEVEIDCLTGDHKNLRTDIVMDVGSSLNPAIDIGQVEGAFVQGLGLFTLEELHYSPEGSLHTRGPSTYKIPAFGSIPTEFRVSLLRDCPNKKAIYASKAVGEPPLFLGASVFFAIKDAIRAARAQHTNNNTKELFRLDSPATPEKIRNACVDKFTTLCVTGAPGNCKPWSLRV

On to `O=C(/C=C/c1ccc(O)c(O)c1)O[C@@H]1CC(C(=O)O)=C[C@@H](O)[C@H]1O` [compound 1, 5-O-caffeoylshikimic acid], for which half-maximal inhibition on xanthine oxidase (XOD) [1] (IC50) was put at 14 µM.

For the compound `O=c1c(O)c(-c2ccc(O)c(O)c2)oc2cc(O)cc(O)c12` [compound 3, quercetin], the inhibition at 100 µg/mL on xanthine oxidase (XOD) [2] turned out to be 82.1%.

Turning to `C[C@@H]1O[C@@H](O[C@H]2C(=O)c3c(O)cc(O)cc3O[C@@H]2c2ccc(O)c(O)c2)[C@H](O)[C@H](O)[C@H]1O` [compound 6, astilbin], the inhibition at 100 µg/mL at xanthine oxidase (XOD) [2] came to 33.2%.
